According to patent publication US5667764A, “Compounds, compositions and methods for binding bio-affecting substances to surface membranes of bio-particles” (Zynaxis, Inc., priority 1992, dated 1997):

Experiments:
cells (red cells) = conditions: 20 uM
[1] = test system: erythrocyte membrane ghosts; assay: Relative membrane retention in erythrocyte membrane ghosts (iodination study); type: binding; conditions: 24 hours, 37° C., PBS+EDTA+5% BSA
Method: Relative membrane retention was determined using erythrocyte membrane ghosts prepared by NH4 Cl lysis (Slezak and Horan, Blood, supra). Ghosts were labeled at 4×10^8 /ml with 10 μM compounds for 5 minutes at room temperature, using previously described procedures. However, post-labeling washes were carried out using PBS containing 1 mM EDTA and 5% BSA. After the final wash, ghosts were resuspended at 4×10^8 /ml in PBS+EDTA+5% BSA and incubated for 24 hours at 37° C. At 24 hours, duplicate 50 μl aliquots were withdrawn from a) the well mixed suspension of ghosts (for determination of total compound present), and b) the supernatant remaining after ghosts were pelleted for 15 minutes at 12,500×g (for determination of unbound compound present). Aliquots were extracted by admixture with 200 μl of 100% ethanol and fluorescence intensity of each extract measured using the Fluoroskan II fluorescence microplate reader. Percent compound retained was calculated as
total compound--unbound compound×100/total compound

[2] = test system: cells (red cell membranes); assay: Number of molecules of compound incorporated per cell; type: cell-based; conditions: 10 μM compounds
Method: Number of molecules of compound incorporated per cell was determined for cells labeled with 10 μM compounds. An aliquot of 10^6 cells (10 ul) was withdrawn from the washed cells after final resuspension and counting, compounds were extracted from the cell membrane by admixture with 250 μl of 100% ethanol, and the fluorescence intensity of 200 μl of the extract was measured using a Fluoroskan II fluorescence microplate reader and filter combination. Concentration of compound in each extract was determined from a calibration curve of known compound concentrations made up in 100% ethanol and measured on the Fluoroskan II. Number of molecules of compound per cell was then calculated from the known extract concentration, total volume of extract, and known number of cells extracted. Calculated values were (4.0±0.4)×10^6 for compound T (1.3±0.2)×10^6 for compound AA and (2.5±0.7)×10^6 for compound AB.

membrane ghosts = assay: Membrane binding stability (MBS) assay in membrane ghosts with 5% albumin; conditions: 24 hours; for MBS: Table III
Procedure, shortened: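 Labeled membrane ghosts were suspended at decreasing numbers in a fixed volume of saline with 5% serum albumin. After 24 hours, label released into the supernatant after pelleting was expressed as percent of total. MBS is the area under the percent-retention versus ghosts/ml curve between 5×10^7 and 4×10^8 ghosts/ml.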

rabbit red blood cells [3] = conditions: native Substance P; cited from earlier work
[4] = test system: rabbit hind limb (femoral arterial bed), substance P receptors; assay: Vascular response in rabbit blood perfused hind limb preparation; type: in vivo; conditions: for ED50: calculated by logistic function, three rabbits; for Effect of antagonist [D-Pro^2,D-Trp^7.9]-substance P on the response: during infusion of antagonist; for Dose at which maximum fall in pressure is achieved / Threshold (minimum) dose required to produce a fall in perfusion pressure / Hind-limb perfusion pressure response: local injection; for Hind-limb perfusion pressure response: no antagonist
From the text: The in vivo receptor pharmacology of the compound produced in Example 3d., above, was studied in a rabbit blood perfused hind limb preparation similar to that described by U. Forstermann et al., J. Pharmacol. Exp. Ther., 234: 1055-61 (1987). Blood from a pentobarbital anesthetized, artificially ventilated rabbit was withdrawn from a cannulated carotid artery, passed within medical grade silastic tubing through a constant speed roller pump, and directed to a cannulated femoral artery. Distal perfusion pressure in the femoral arterial bed was measured (in mm Hg) by means of a micropressure transducer (Millar) passed down the perfusion tubing so as to lie just beyond the tip of the femoral catheter. Initially, pump speed was adjusted so that distal perfusion pressure approximated systemic mean arterial blood pressure after which blood flow was kept constant for the remainder of each experiment. Changes in resistance then varied directly as distal perfusion pressure in a manner similar to that described by Ohm's law, such that:
Vascular Resistance=Perfusion Pressure Blood Flow
Thus, by maintaining blood flow constant for the duration of each experiment, changes in distal perfusion pressure directly reflected vascular resistance such that a decrease in pressure signifies vasodilation and an increase in pressure signifies vasoconstriction. Direct injection into the perfusion circuit could thus be used to assess the vascular biology and pharmacology of substances believed to exert actions on in vivo vascular smooth muscle tone.

[5] = test system: red blood cell ghosts (plasma membrane); assay: Membrane retention coefficient (MRC) in red blood cell ghosts; type: binding; conditions: 24 hr; Table II
Procedure, shortened: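 Red blood cell ghosts (~1×10^9/ml) were labelled 10 min with compound diluted in iso-osmotic sucrose from ethanol stocks, then washed repeatedly in PBS with 10% FBS over ≥24 h. Total and supernatant compound were measured after n-butanol extraction (fluorescence for fluorescent compounds), and MRC was calculated from these at each wash or time point.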

[6] = In vivo loss of dye from labeled, reinjected erythrocytes; conditions: rabbit, iv
From the text: *Half life for loss of dye from rabbit erythrocytes after labeling and

synovial cells = assay: Synovial distribution after intra-articular injection; type: in vivo; conditions: 1 hour after injection into the knee, 10 μM
Method: To estimate the homogeneity or heterogeneity of incorporation by synovial cells after intra-articular injection, approximately 0.1 mL of a 10 μM solution of an iodide salt of compound T (see Example 2, above) in 300 mOsM pH 7.0 glucose was injected into the knee as described in Example 10. After 1 hour, the animal was sacrificed, and both injected and uninjected knee joints were dissected. Preparation of whole joint cross sections was not feasible because demineralization is required to cut thin sections and demineralizing solvents remove compounds of the invention from tissue. Therefore the infrapatellar fat pads which underlie the kneecap and form one boundary of the synovial cavity were carefully removed, snap frozen on dry ice, and stored at -80° until frozen sections could be prepared. Thick (10μ) cryostat sections were cut, adhered to glass slide, and evaluated by light and fluorescence microscopy.
(The synovial layer is only 1-2 cells thick in a normal joint but becomes thickened due to hyperproliferation in an arthritic joint.) The rest of the tissue was composed primarily of large fat cells.

rabbit red blood cells [7] = assay: In vivo stability of conjugate on red blood cells
Method: To study the in vivo characteristics of red blood cells labeled with the conjugate of Example 3d., above, 0.5 ml of fresh anticoagulated blood from each of 2 rabbits was labeled with the conjugate (final concentration, 10 μM) and injected back in the same rabbit from which the blood was taken. After the conjugate labeling but prior to injection, an aliquot of labeled cells was examined by flow cytometry to insure adequate labeling. Following in vivo administration of the labeled cells, blood samples were removed at 30 minutes, and then 1, 2, 3, 4, and 7 days and examined by flow cytometry for fluorescent cells.

human RBCs = assay: Flow cytometry of conjugate-labeled human RBCs with anti-substance P antibody; type: cell-based
Method: Specifically, untreated RBCs and conjugate-labeled RBCs were analyzed to determine if:
1. The conjugate was incorporated on the surface of cells (FIG. 3A comparison).
2. Fluorescein isothiocyanate (FITC) conjugated goat anti-rabbit antibodies nonspecifically bound to the conjugate-labeled or non-labeled cells (FIG. 3B comparison), or
3. rabbit anti-substance P antibodies+FITC anti-rabbit antibodies specifically bound to the conjugate-labeled RBCs (FIG. 3C comparison).

rabbit red blood cells [8] = assay: Binding of conjugate to washed rabbit red blood cells, flow cytometry; type: cell-based; conditions: ex vivo, 100 uM
Method: The conjugate of Example 3d. […] The fluorescent moiety of the conjugate allows its ready detection on RBCs by flow cytometry. When conjugate labeled rabbit RBCs are injected in the rabbit hind-limb, a reduction in perfusion pressure occurs, the magnitude of which is related to the number of injected cells.

Structure (SMILES)	Percent compound retained [1] [%]	Number of molecules of compound incorporated per cell [2]	MBS (membrane ghosts) [%]	ED50 [4] [pmol]	Effect of antagonist [D-Pro^2,D-Trp^7.9]-substance P on the response [4]	Dose at which maximum fall in pressure is achieved [4] [pmol]	Threshold (minimum) dose required to produce a fall in perfusion pressure [4]	Hind-limb perfusion pressure response [4]	further results
CCCCCCCCCCCCCCCCCCCCCC[N+]1=C(C=CC=C2N(CCCCCCCCCCCCCC)c3ccc(CNC=O)cc3C2(C)C)C(C)(C)c2ccccc21 [AB]	96.8±1.3	(2.5±0.7)×10^6 molecules of compound per cell	91 ± 0.5	–	–	–	–	–	Viability and recovery (cells (red cells)): 70-80%
CSCC[C@H](NC(=O)[C@H](CC(C)C)NC(=O)CNC(=O)[C@H](Cc1ccccc1)NC(=O)[C@H](Cc1ccccc1)NC(=O)[C@H](CCC(N)=O)NC(=O)[C@H](CCC(N)=O)NC(=O)[C@@H]1CCCN1C(=O)[C@H](CCCCN)NC(=O)[C@@H]1CCCN1C(=O)[C@@H](N)CCCNC(=N)N)C(N)=O [Substance P, reference compound]	–	–	–	0.13	inhibited by [D-Pro^2,D-Trp^7.9 ]-substance P	3 to 10	approximately 0.003 pmoles	brief, dose-related decreases in hind-limb perfusion pressure	Lifetime in circulation (rabbit red blood cells [3]): minutes; Relative potency of substance P vs conjugate ([4]; ratio of ED50): 250 fold
CCCCCCCCCCCCCCCCCCCCCCN1C(=CC=CC2=[N+](CCCCCCCCCCCCCC)c3ccccc3C2(C)C)C(C)(C)c2ccccc21 [T]	91.9±2.9	(4.0±0.4)×10^6 molecules of compound per cell	85 ± 1.7	–	–	–	–	–	MRC# (at 24 hr.) [5]: 97 ± 0.1; half-life [6]: 130 days; Labeling of infrapatellar fat pad cross sections (synovial cells): bright and relatively homogeneous labeling was essentially confined to the synovial cell layer; MBS (% of max.) (membrane ghosts; Table II): 85 ± 1.7 % of max.
CCCCCCCCCCCCCCCCCCCCCC[N+]1=C(C=CC=C2N(CCCCCCCCCCCCCC)c3ccc(CNC(=O)c4ccc(C(=O)NCCCC[C@H](NC(=O)[C@@H]5CCCN5C(=O)[C@@H](N)CCCNC(=N)N)C(=O)N5CCC[C@H]5C(=O)N[C@@H](CCC(N)=O)C(=O)N[C@@H](CCC(N)=O)C(=O)N[C@@H](Cc5ccccc5)C(=O)N[C@@H](Cc5ccccc5)C(=O)NCC(=O)N[C@@H](CC(C)C)C(=O)N[C@@H](CCSC)C(N)=O)cc4)cc3C2(C)C)C(C)(C)c2ccccc21 [conjugate of Example 3d]	–	–	–	34	inhibited by [D-Pro^2,D-Trp^7.9 ]-substance P	1000	1 to 10 pmol	brief, dose-related decreases in hind-limb perfusion pressure	In vivo dissociation from labeled cells (rabbit red blood cells [7]; up to 7 days): relatively slowly; Binding to red cells and effect in circulation (rabbit red blood cells [7]; vs free peptide): bind stably to red cells and to provide a protracted therapeutic effect in circulation; Red fluorescent signal of labeled cells (human RBCs; 10 μM, FIG. 3A): increased red fluorescent signal when compared with the unlabeled cells; Recognition of cell-bound Substance P by anti-substance P antibody (human RBCs; FIG. 3C): significant amount of both green and red fluorescence detectable on the cells; Perfusion pressure response to conjugate labeled RBCs ([4]; 10^6 -10^9 labeled RBCs injected): graded decreases in perfusion pressure in the rabbit hind limb preparation; Hind-limb perfusion pressure response ([4]; listed as Substance P-lipophilic cyanine conjugate of Example 3.d.): capable of vasodilative activity which is qualitatively similar to that of native Substance P; Vasodilator activity of supernatant fraction of labeled RBCs ([4]; supernatant fractions of labeled RBCs): contained a significant portion of the biological activity of the original cell suspension; Binding to red blood cells (rabbit red blood cells [8]): readily binds to washed rabbit red blood cells
